Measured values as given in ChEMBL document CHEMBL1145057, “Water soluble, core-modified porphyrins. 3. Synthesis, photophysical properties, and in vitro studies of photosensitization, uptake, and localization with carboxylic acid-substituted derivatives” (J Med Chem, 2003).

Assay: Partition coefficient (logP)
Assay type: physicochemical
Conditions: octanol/water

SMILES | logP
O=C(O)COc1ccc(-c2c3nc(c(-c4ccccc4)c4ccc(s4)c(-c4ccccc4)c4nc(c(-c5ccccc5)c5ccc2s5)C=C4)C=C3)cc1 | > 3.5
O=C(O)COc1ccc(-c2c3nc(c(-c4ccc(OCC(=O)O)cc4)c4ccc(s4)c(-c4ccc(OCC(=O)O)cc4)c4nc(c(-c5ccc(OCC(=O)O)cc5)c5ccc2s5)C=C4)C=C3)cc1 | -0.95
O=S(=O)(O)c1ccc(-c2c3nc(c(-c4ccc(F)cc4)c4ccc(s4)c(-c4ccc(F)cc4)c4nc(c(-c5ccc(S(=O)(=O)O)cc5)c5ccc2s5)C=C4)C=C3)cc1 | -1.9
O=C(O)COc1ccc(-c2c3nc(c(-c4ccc(OCC(=O)O)cc4)c4ccc(s4)c(-c4ccc(OCC(=O)O)cc4)c4nc(c(-c5ccccc5)c5ccc2s5)C=C4)C=C3)cc1 | -1.49
O=C(O)COc1ccc(-c2c3nc(c(-c4ccccc4)c4ccc(s4)c(-c4ccccc4)c4nc(c(-c5ccc(OCC(=O)O)cc5)c5ccc2[se]5)C=C4)C=C3)cc1 | -0.67
O=C(O)COc1ccc(-c2c3nc(c(-c4ccccc4)c4ccc(s4)c(-c4ccccc4)c4nc(c(-c5ccc(OCC(=O)O)cc5)c5ccc2s5)C=C4)C=C3)cc1 | 0.036
